US20160159805A1, “Heterocyclic sulfonylamino(thio)carbonyl-derivatives with nematicidal properties” (BAYER CROPSCIENCE AG, priority 2013, published 2016)

System: Meloidogyne incognita
Test: Meloidogyne incognita test (MELGIN), sand, gall formation on salad seedlings after 14 days
Type: in vivo
Settings: application rate 20 ppm, 100% = no galls, 0% = galls equal to untreated control
Experimental: 1. Meloidogyne incognita—test (MELGIN) [table] To produce a suitable preparation of active compound, 1 part by weight of active compound is mixed with the stated amount of solvent, and the concentrate is diluted with water to the desired concentration. Vessels are filled with sand, a solution of the active ingredient, a suspension containing eggs and larvae of the southern root-knot nematode (Meloidogyne incognita) and salad seeds. The salad seeds germinate and the seedlings grow. Galls develop in the roots. After 14 days the nematicidal activity is determined on the basis of the percentage of gall formation. 100% means no galls were found; 0% means the number of galls found on the roots of the treated plants was equal to that in untreated control plants.

## N#Cc1cnn(Cc2ccc(Cl)c(S(=O)(=O)NC(=O)c3cn4cc(C(F)(F)F)cc(Cl)c4n3)c2)c1 [Ia-14, 8-chloro-N-({2-chloro-5-[(4-cyano-1H-pyrazol-1-yl)methyl]phenyl}sulfonyl)-6-(trifluoromethyl)imidazo[1,2-a]pyridine-2-carboxamide]
  nematicidal activity on the basis of the percentage of gall formation: 100%
